Patent US4557871A, “Novel styrene derivatives of the general formula” (Taisho Pharmaceutical Co., Ltd., priority 1983, dated 1985)
Where two headings read alike, the source gives them in different places.

What was measured:
edema in left hind paw [1] = test: Carrageenin-induced hind paw edema in rats, test compound orally 1 hour before (Winter's method), anti-inflammatory activity; assay type: in vivo, Male Wistar rats; settings: paw volume 3 hours after carrageenin; for inhibition at 6 mg/kg: Rattus norvegicus, po
Procedure: Anti-inflammatory activity was evaluated by the Winter's method [Journal of Pharmacology and Experimental Therapeutics, volume 141, page 369(1963)]. Male Wistar rats (group of 6 animals) were administered orally the test compounds (dose: 6 mg/kg) one hour before inducing the edema in left hind paw with 0.1 ml of a 1% carrageenin-saline suspension. Volumes of the hind paws were determined with a volume meter 3 hours after the injection of carrageenin. Indomethacin (Control 1) and 4-vinylphenylacetic acid (Control 2) were used as controls.

edema in left hind paw [2] = test: Duration of inhibition of carrageenin-induced hind paw edema, test compound orally 1, 24 or 48 hours before inducing the edema; assay type: in vivo, Male Wistar rats; settings: Rattus norvegicus; for inhibition at 1.5 mg/kg: dose 1.5 mg/kg oral; for inhibition at 30 mg/kg: dose 30 mg/kg oral; for inhibition at 3 mg/kg: po; for inhibition at 6 mg/kg: dose 6 mg/kg oral
Procedure: Anti-inflammatory activity was evaluated by the Winter's method [Journal of Pharmacology and Experimental Therapeutics, volume 141, page 369(1963)]. […] Volumes of the hind paws were determined with a volume meter 3 hours after the injection of carrageenin. Indomethacin (Control 1) and 4-vinylphenylacetic acid (Control 2) were used as controls.
Following a procedure similar to that of Test example 1, the test compounds were administered orally to the rats 1, 24 or 48 hours before inducing the edema, and there was obtained a result shown in Table 2.

[3] = 6 mg/kg oral, one hour before carrageenin, read-out: Inhibition of edema
[4] = read-out: Inhibition of edema, 6 mg/kg oral, one hour before carrageenin
[5] = 6 mg/kg oral, one hour before carrageenin
[6] = 1 hr before inducing edema, read-out: Inhibition of edema, 1 hr
[7] = 24 hrs before inducing edema, read-out: Inhibition of edema, 24 hrs
[8] = 48 hrs before inducing edema, read-out: Inhibition of edema, 48 hrs

| SMILES | inhibition at 6 mg/kg (edema in left hind paw [1]; [3]) [%] | other results |
| --- | --- | --- |
| CC(C(=O)OCCO)c1ccc(C=C(Cl)Cl)cc1 (centres unmarked) [ST-59, 2-Hydroxyethyl 2-[4-(2,2-dichlorovinyl)phenyl]propionate] | 57.3 | – |
| CC(C(=O)Nc1ccc(Cl)cc1)c1ccc(C=C(Cl)Cl)cc1 (centres unmarked) [ST-16, N-(4-Chlorophenyl)-2-[4-(2,2-dichlorovinyl)phenyl]propionamide] | 43.1 | – |
| CC(C(N)=O)c1ccc(C=C(Cl)Cl)cc1 (centres unmarked) [ST-11, 2-[4-(2,2-dichlorovinyl)phenyl]propionamide] | 26.5 | – |
| CCOC(=O)CNC(=O)C(C)c1ccc(C=C(Cl)Cl)cc1 (centres unmarked) [ST-23, N-{2-[4-(2,2-Dichlorovinyl)phenyl]propionyl}glycine ethyl ester] | 35.5 | – |
| CC(C(=O)O)c1ccc(C=C(Cl)Cl)cc1 (centres unmarked) [ST-35, sodium 2-[4-(2,2-dichlorovinyl)phenyl]propionate] | – | inhibition at 6 mg/kg (edema in left hind paw [1]; [4]): 46% |
| CC(CO)c1ccc(C=C(Cl)Cl)cc1 (centres unmarked) [ST-10, 2-[4-(2,2-dichlorovinyl)phenyl]propanol] | 62.4 | – |
| CCC(=O)OCOC(=O)C(C)c1ccc(C=C(Cl)Cl)cc1 (centres unmarked) [ST-46, Propionyloxymethyl 2-[4-(2,2-dichlorovinyl)phenyl]propionate] | 32.2 | – |
| CCC(=O)OC(C)OC(=O)C(C)c1ccc(C=C(Cl)Cl)cc1 (centres unmarked) [ST-47, 1-(Propionyloxy)ethyl 2-[4-(2,2-dichlorovinyl)phenyl]propionate] | 49.9 | – |
| Cc1ccc(NC(=O)C(C)c2ccc(C=C(Cl)Cl)cc2)cc1 (centres unmarked) [ST-14, N-(4-Methylphenyl)-2-[4-(2,2-dichlorovinyl)phenyl]propionamide] | 33.6 | – |
| CC(C(=O)OCc1ccccn1)c1ccc(C=C(Cl)Cl)cc1 (centres unmarked) [ST-44, 2-Pyridylmethyl 2-[4-(2,2-dichlorovinyl)phenyl]propionate] | 59.8 | – |
| CC(C(=O)NCC(=O)O)c1ccc(C=C(Cl)Cl)cc1 (centres unmarked) [ST-24, N-{2-[4-(2,2-Dichlorovinyl)phenyl]propionyl}glycine] | 30 | – |
| CCCCCCCCCCCCCCCC(=O)OC(C)OC(=O)C(C)c1ccc(C=C(Cl)Cl)cc1 (centres unmarked) [ST-48, 1-(Palmitoyloxy)ethyl 2-[4-(2,2-dichlorovinyl)phenyl]propionate] | 32.7 | – |
| CC(C(=O)O)c1ccc(C=C(Cl)Cl)cc1 (centres unmarked) [ST-38, morpholinium 2-[4-(2,2-dichlorovinyl)phenyl]propionate] | – | Inhibition of edema (edema in left hind paw [1]; [5]): 35.6% |
| CCOC(=O)C(C)c1ccc(C=C(Cl)Cl)c(F)c1 (centres unmarked) [ST-55, ethyl 2-[4-(2,2-dichlorovinyl)-3-fluorophenyl]propionate] | 38.2 | – |
| CN1C(C(=O)Nc2ccccn2)=C(O)c2ccccc2S1(=O)=O [Control 3, piroxicam] | – | inhibition at 1.5 mg/kg (edema in left hind paw [2]; [6]): 48.6%; inhibition at 1.5 mg/kg (edema in left hind paw [2]; [7]): 13.3%; inhibition at 1.5 mg/kg (edema in left hind paw [2]; [8]): 2.1% |
| CC(C)=CCC/C(C)=C/COC(=O)C(C)c1ccc(C=C(Cl)Cl)cc1 (centres unmarked) [ST-58, geranyl 2-[4-(2,2-dichlorovinyl)phenyl]propionate] | 39 | – |
| CC(C)=CCCC(C)=CCCC(C)=CCOC(=O)C(C)c1ccc(C=C(Cl)Cl)cc1 (centres unmarked) [ST-60, Farnesyl 2-[4-(2,2-dichlorovinyl)phenyl]propionate] | 50.8 | – |
| CC(C)CCOC(=O)C(C)c1ccc(C=C(Cl)Cl)cc1 (centres unmarked) [ST-42, Isopentyl 2-[4-(2,2-dichlorovinyl)phenyl]propionate] | 60.4 | – |
| CC(C)=CCC/C(C)=C/COC(=O)C(C)c1ccc(C=C(Cl)Cl)c(Cl)c1 (centres unmarked) [ST-62, Geranyl 2-[3-chloro-4-(2,2-dichlorovinyl)phenyl]propionate] | 43.2 | – |
| O=C(O)Cc1ccc(C=C(Cl)Cl)cc1 [ST-2, 4-(2,2-Dichlorovinyl)phenylacetic acid] | 63.9 | – |
| CC(C(=O)O)c1ccc(C=C(Cl)Cl)c(Cl)c1 (centres unmarked) [ST-9, 2-[3-Chloro-4-(2,2-dichlorovinyl)phenyl]propionic acid] | 58 | – |
| CC(C(=O)OC1OC(=O)c2ccccc21)c1ccc(C=C(Cl)Cl)cc1 (centres unmarked) [ST-49, 2-Phthalidyl 2-[4-(2,2-dichlorovinyl)phenyl]propionate] | 53.3 | – |
| CC(C(=O)Nc1ccc(C(=O)O)cc1)c1ccc(C=C(Cl)Cl)cc1 (centres unmarked) [ST-20, 4-{2-[4-(2,2-Dichlorovinyl)phenyl]propionylamino}benzoic acid] | 47 | – |

| SMILES | inhibition at 6 mg/kg (edema in left hind paw [1]; [3]) [%] | other results |
| --- | --- | --- |
| COCOC(=O)C(C)c1ccc(C=C(Cl)Cl)cc1 (centres unmarked) [ST-43, Methoxymethyl 2-[4-(2,2-dichlorovinyl)phenyl]propionate] | 37.1 | – |
| O=C(O)Cc1cccc(C=C(Cl)Cl)c1 [ST-3, 3-(2,2-Dichlorovinyl)phenylacetic acid] | 31.9 | – |
| CC(C)=CCOC(=O)C(C)c1ccc(C=C(Cl)Cl)cc1 (centres unmarked) [ST-41, prenyl 2-[4-(2,2-dichlorovinyl)phenyl]propionate] | 48.8 | – |
| CC(C(=O)Nc1ccccn1)c1ccc(C=C(Cl)Cl)cc1 (centres unmarked) [ST-22, N-(2-Pyridyl)-2-[4-(2,2-dichlorovinyl)phenyl]propionamide] | 35.5 | – |
| C=Cc1ccc(CC(=O)O)cc1 [Control 2, 4-vinylphenylacetic acid] | 15.7 | inhibition at 30 mg/kg (edema in left hind paw [2]; [6]): 40.2%; inhibition at 30 mg/kg (edema in left hind paw [2]; [7]): 1.3%; inhibition at 30 mg/kg (edema in left hind paw [2]; [8]): -3.5% |
| CC(C(=O)OC1CCCCC1)c1ccc(C=C(Cl)Cl)cc1 (centres unmarked) [ST-61, Cyclohexyl 2-[4-(2,2-dichlorovinyl)phenyl]propionate] | 43.7 | – |
| CC(C(=O)O)c1cccc(C=C(Cl)Cl)c1 (centres unmarked) [ST-4, 2-[3-(2,2-Dichlorovinyl)phenyl]propionic acid] | 32 | – |
| CC(C(=O)O)c1ccc(C=C(F)F)cc1 (centres unmarked) [ST-7, 2-[4-(2,2-difluorovinyl)phenyl]propionic acid] | 48.4 | – |
| COc1ccc2c(c1)c(CC(=O)O)c(C)n2C(=O)c1ccc(Cl)cc1 [Control 1, Indomethacin] | – | inhibition at 3 mg/kg (edema in left hind paw [2]; read-out: Inhibition of edema, 1 hr): 30.4%; inhibition at 3 mg/kg (edema in left hind paw [2]; read-out: Inhibition of edema, 24 hrs): 8.1%; inhibition at 3 mg/kg (edema in left hind paw [2]; read-out: Inhibition of edema, 48 hrs): 0.8%; Inhibition of edema (edema in left hind paw [1]; [5]): 59.3%; inhibition at 6 mg/kg (edema in left hind paw [1]; [4]): 68.2% |
| CC(=O)OC(C)OC(=O)C(C)c1ccc(C=C(Cl)Cl)cc1 (centres unmarked) [ST-45, 1-(Acetoxy)ethyl 2-[4-(2,2-dichlorovinyl)phenyl]propionate] | 44.8 | – |
| CC(C(=O)NO)c1ccc(C=C(Cl)Cl)cc1 (centres unmarked) [ST-34, 2-[4-(2,2-dichlorovinyl)phenyl]propionylhydroxamic acid] | 32.5 | – |
| CCOC(=O)C(C)c1ccc(C=C(Cl)Cl)cc1 (centres unmarked) [ST-5, ethyl 2-[4-(2,2-dichlorovinyl)phenyl]propionate] | 46.5 | – |
| CC(C(=O)O)c1ccc(C=C(Cl)Cl)cc1 (centres unmarked) [ST-39, 2-Pyridylammonium 2-[4-(2,2-dichlorovinyl)phenyl]propionate] | – | Inhibition of edema (edema in left hind paw [1]; [5]): 51.4% |
| CCOC(=O)C(C)c1ccc(C=C(Cl)Cl)c(Cl)c1 (centres unmarked) [ST-56, Ethyl 2-[3-chloro-4-(2,2-dichlorovinyl)phenyl]propionate] | 39.4 | – |
| CC(C)=Cc1ccc(C(C)C(=O)O)cc1 (centres unmarked) [Control 4, 2-[4-(2,2-dimethylvinyl)phenyl]propionic acid] | – | inhibition at 6 mg/kg (edema in left hind paw [2]; [6]): 59.3%; inhibition at 6 mg/kg (edema in left hind paw [2]; [7]): -8.5%; inhibition at 6 mg/kg (edema in left hind paw [2]; [8]): 3.7% |
| CC(C(=O)O)c1ccc(C=C(Cl)Cl)cc1 (centres unmarked) [ST-36, calcium 2-[4-(2,2-dichlorovinyl)phenyl]propionate] | – | Inhibition of edema (edema in left hind paw [1]; [5]): 43.0% |
| CCNC(=O)C(C)c1ccc(C=C(Cl)Cl)cc1 (centres unmarked) [ST-25, N-Ethyl-2-[4-(2,2-dichlorovinyl)phenyl]propionamide] | 37.1 | – |
| CC(C)=CCOC(=O)C(C)c1ccc(C=C(Cl)Cl)c(F)c1 (centres unmarked) [ST-50, Prenyl 2-[4-(2,2-dichlorovinyl)-3-fluorophenyl]propionate] | 61.4 | – |
| CC(C(=O)O)c1ccc(C=C(Cl)Cl)c(F)c1 (centres unmarked) [ST-8, 2-[4-(2,2-dichlorovinyl)-3-fluorophenyl]propionic acid] | 64.8 | – |
| CC(C(=O)O)c1ccc(C=C(Cl)Cl)cc1 (centres unmarked) [ST-1, 2-[4-(2,2-dichlorovinyl)phenyl]propionic acid] | – | inhibition at 1.5 mg/kg (edema in left hind paw [2]; [6]): 42.6%; inhibition at 1.5 mg/kg (edema in left hind paw [2]; [7]): 31.1%; inhibition at 1.5 mg/kg (edema in left hind paw [2]; [8]): 25.3%; Inhibition of edema (edema in left hind paw [1]; [5]): 66.1% |
| CC(C(=O)Nc1ccc(F)cc1)c1ccc(C=C(Cl)Cl)cc1 (centres unmarked) [ST-17, N-(4-Fluorophenyl)-2-[4-(2,2-dichlorovinyl)phenyl]propionamide] | 40 | – |
| CC(C(=O)O)c1ccc(C=C(Cl)Cl)cc1 (centres unmarked) [ST-37, Aluminum 2-[4-(2,2-dichlorovinyl)phenyl]propionate] | – | Inhibition of edema (edema in left hind paw [1]; [5]): 63.1% |
